pEC50, pKi: −log10 of the molar value. Activity calls are given as the source filed them. The rule behind the calls is not given here.
The compounds below were run against Mitogen-activated protein kinase kinase kinase 3 (Homo sapiens) (UniProt Q99759) (assay: inhibitors of MEK5 binding to MEKK3, dose response, biochemical, bead multiplex flow cytometry, wildtype (AID 1896)). Settings: bead-based multiplex flow cytometry, MEK5-MEKK3 PB1 binding.
Mitogen-activated protein kinase kinase kinase 3 (Homo sapiens), sequence (Q99759 whole entry, looked up): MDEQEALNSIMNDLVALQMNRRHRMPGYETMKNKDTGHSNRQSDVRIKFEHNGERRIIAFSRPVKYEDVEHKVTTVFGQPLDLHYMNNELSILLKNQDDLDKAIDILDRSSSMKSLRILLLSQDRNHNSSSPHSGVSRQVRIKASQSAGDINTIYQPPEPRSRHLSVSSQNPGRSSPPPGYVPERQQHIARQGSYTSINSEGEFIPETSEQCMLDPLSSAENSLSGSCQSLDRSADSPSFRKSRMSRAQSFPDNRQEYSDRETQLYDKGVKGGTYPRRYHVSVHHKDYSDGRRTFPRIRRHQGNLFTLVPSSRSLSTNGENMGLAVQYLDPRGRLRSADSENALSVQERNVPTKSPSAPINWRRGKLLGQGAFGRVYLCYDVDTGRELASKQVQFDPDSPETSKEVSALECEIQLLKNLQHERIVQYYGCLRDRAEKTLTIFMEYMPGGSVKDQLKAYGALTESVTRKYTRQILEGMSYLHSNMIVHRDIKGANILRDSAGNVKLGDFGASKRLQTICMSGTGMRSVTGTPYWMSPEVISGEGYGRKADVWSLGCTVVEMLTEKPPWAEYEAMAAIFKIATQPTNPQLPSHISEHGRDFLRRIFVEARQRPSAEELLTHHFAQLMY
`C#CCOCCOCCOCCNc1nc(N2CCN(C(=O)C([C@@H](C)CC)n3cc(C(N)COC(=O)C(F)(F)F)nn3)CC2)nc(N2CCN(C(=O)[C@H](CCCCN)n3cc(C(N)[C@H](C)CC)nn3)CC2)n1` (stereo not given in full) was tested, and the EC50 was > 30 µM (inactive).
For `COc1ccccc1N1CCN(S(=O)(=O)c2ccc(Cl)s2)CC1`, the EC50 was > 30 µM (inactive).
With `O=C(Nc1ccc(Cl)cn1)c1ccc2c(Cl)c3c(nc2c1)CCC3` the EC50 was > 30 µM (inactive).
`CCCCCCCCCCOC(=O)Cn1c(COc2ccccc2C)[n+](C)c2ccccc21` was tested, and the EC50 was > 30 µM (inactive).
For `C#CCOCCOCCOCCNc1nc(N2CCN(C(=O)[C@H]([C@@H](C)CC)n3cc([C@@H](N)CO)nn3)CC2)nc(N2CCN(C(=O)[C@H](Cc3cc4ccccc4[nH]3)n3cc([C@@H](N)Cc4ccc(O)cc4)nn3)CC2)n1`, the pEC50 was 5.08.
With `COc1ccc2nc3cc(Cl)ccc3c(Nc3cc(C(C)C)c(O)cc3C)c2c1` the EC50 was > 30 µM (inactive).
With `COCCNC(=O)CN(c1cc(Cl)ccc1OC)S(=O)(=O)c1ccc(C)c([N+](=O)[O-])c1` the EC50 was > 30 µM (inactive).
With `Cc1ccnc(NC(=O)C2(c3cccs3)CCOCC2)c1` the EC50 was > 30 µM (inactive).
With `CNC(=O)C(=O)Nc1c(C)cc(C)cc1C` the EC50 was > 30 µM (inactive).
With `O=C1c2ccccc2-c2onc3ccc(NCCCn4ccnc4)c1c23` the EC50 was > 30 µM (inactive).
In the case of `COc1cc2nc(N3CCN(c4cc(C)ccc4C)CC3)nc(N)c2cc1OC`, the EC50 was > 30 µM (inactive).
In the case of `CN(C)CCCN(C(=O)c1ccc2c(c1)CCCC2)c1nc2ccc(Cl)cc2s1`, the EC50 was > 30 µM (inactive).
`CN1CCN(CC(=O)N2CCn3c4c(c5cc(C6CCCCC6)ccc53)CCCC42)CC1` (stereo not given) was tested, and the EC50 was > 30 µM (inactive).
With `CCN1CCN(CCNC(=O)c2ccc(/C=C3/Sc4ccccc4N(Cc4cccc(C)c4)C3=O)cc2)CC1` the EC50 was > 30 µM (inactive).

Same assay, conditions: bead-based multiplex flow cytometry, MEK5-MEKK3 PB1 binding; measured here: Ki from EC50
`C#CCOCCOCCOCCNc1nc(N2CCN(C(=O)[C@H]([C@@H](C)CC)n3cc([C@@H](N)CO)nn3)CC2)nc(N2CCN(C(=O)[C@H](Cc3cc4ccccc4[nH]3)n3cc([C@@H](N)Cc4ccc(O)cc4)nn3)CC2)n1` showed a pKi of 5.15.

Reference: PubChem BioAssay AID1896 (NMMLSC, 2009)
